pIC50: −log10 of the molar value.

Chain of Endothelial lipase (EL) (Q9Y5X9 21-500): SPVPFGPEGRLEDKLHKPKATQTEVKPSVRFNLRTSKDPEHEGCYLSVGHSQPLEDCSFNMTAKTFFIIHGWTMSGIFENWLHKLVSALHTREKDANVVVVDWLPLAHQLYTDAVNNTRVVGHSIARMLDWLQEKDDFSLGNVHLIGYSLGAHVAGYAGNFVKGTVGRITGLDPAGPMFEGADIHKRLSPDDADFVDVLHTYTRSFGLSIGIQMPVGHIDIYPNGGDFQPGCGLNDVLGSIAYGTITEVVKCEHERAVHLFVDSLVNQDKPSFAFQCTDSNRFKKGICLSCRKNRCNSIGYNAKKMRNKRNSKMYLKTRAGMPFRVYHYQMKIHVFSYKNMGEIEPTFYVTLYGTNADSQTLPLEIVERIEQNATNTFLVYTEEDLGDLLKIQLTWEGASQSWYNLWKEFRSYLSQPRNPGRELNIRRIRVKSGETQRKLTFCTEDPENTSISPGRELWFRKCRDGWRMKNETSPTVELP

The first test concerns the target Endothelial lipase (EL) (Homo sapiens (Human), UniProt Q9Y5X9). In words: Endothelial lipase (EL) enzymatic assay with fluorescent substrate A10070 in DMPG vesicles. Format: biochemical.
Conditions: not given
In outline:
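Vesicles prepared: A10070 dried with DMPG, resuspended in HEPES pH 8.0/NaCl/EDTA, sonicated on ice. Enzyme incubated with compound 30 min at 37° C. Reaction started with 1:10 diluted vesicles. Fluorescence (490/530 nm) followed 60 min; slope from 300–900 secs gives rate.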
Broadly, the pIC50 is −log10 of the IC50, conventionally taken in molar units. Higher therefore signals a small IC50. `CC(C)n1cc(-c2cc3nc(C(C(=O)NCC(=O)NC4CC4)S(=O)(=O)C(C)C)sc3cc2F)ccc1=O` (stereo not shown) [Example 268, N-[(cyclopropyl-carbamoyl)methyl]-2-{6-fluoro-5-[6-oxo-1-(propan-2-yl)-1,6-dihydropyridin-3-yl]-1,3-benzothiazol-2-yl}-2-(propane-2-sulfonyl)acetamide] showed a pIC50 of 7.96.

Turning to `COC(=O)Nc1ccc(-c2cc3nc(C(C(=O)NCC(=O)NC4CC4)S(=O)(=O)C(C)C)sc3cc2F)cc1` (stereo not shown) [Example 269, methyl N-{4-[2-({[(cyclopropyl-carbamoyl)methyl]carbamoyl} (propane-2-sulfonyl)methyl)-6-fluoro-1,3-benzothiazol-5-yl]phenyl}carbamate], the negative logarithm of the IC50 (pIC50) was 8.22.

For `CC(C)S(=O)(=O)C(C(=O)NCC(=O)NC1CC1)c1nc2cc(-c3ccc4[nH]c(=O)ccc4c3)c(F)cc2s1` (stereo not shown) [Example 270, N-[(cyclopropyl-carbamoyl)methyl]-2-[6-fluoro-5-(2-oxo-1,2-dihydroquinolin-6-yl)-1,3-benzothiazol-2-yl]-2-(propane-2-sulfonyl)acetamide], the pIC50 was 8.05.

`Cc1cc(-c2cc3nc(C(C(=O)NCC(=O)NC4CC4)S(=O)(=O)C(C)C)sc3cc2F)cnn1` (stereo not shown) [Example 271, N-[(cyclopropyl-carbamoyl)methyl]-2-[6-fluoro-5-(6-methylpyridazin-4-yl)-1,3-benzothiazol-2-yl]-2-(propane-2-sulfonyl)acetamide] gave a pIC50 of 7.35.

Compound `CC(C)S(=O)(=O)C(C(=O)NCC(=O)NC1CC1)c1nc2cc(-c3cccnc3F)c(F)cc2s1` (stereo not shown) [Example 272, N-[(cyclopropyl-carbamoyl)methyl]-2-[6-fluoro-5-(2-fluoropyridin-3-yl)-1,3-benzothiazol-2-yl]-2-(propane-2-sulfonyl)acetamide] had a pIC50 of 7.54.

Turning to `CC(C)S(=O)(=O)C(C(=O)NCC(=O)NC1CC1)c1nc2cc(-c3ccc4cnn(C)c4c3)c(F)cc2s1` (stereo not shown) [Example 273, N-[(cyclopropyl-carbamoyl)methyl]-2-[6-fluoro-5-(1-methyl-1H-indazol-6-yl)-1,3-benzothiazol-2-yl]-2-(propane-2-sulfonyl)acetamide], the pIC50 was 8.05.

`CC(C)S(=O)(=O)C(C(=O)NCC(=O)NC1CC1)c1nc2cc(-c3cccc4c3cnn4C)c(F)cc2s1` (stereo not shown) [Example 274, N-[(cyclopropyl-carbamoyl)methyl]-2-[6-fluoro-5-(1-methyl-1H-indazol-4-yl)-1,3-benzothiazol-2-yl]-2-(propane-2-sulfonyl)acetamide] showed a pIC50 of 8.52.

Regarding `CC(C)S(=O)(=O)C(C(=O)NCC(=O)NC1CC1)c1nc2cc(-c3ccc(C#N)cc3)c(F)cc2s1` (stereo not shown) [Example 275, 2-[5-(4-cyanophenyl)-6-fluoro-1,3-benzothiazol-2-yl]-N-[(cyclopropyl-carbamoyl)methyl]-2-(propane-2-sulfonyl)acetamide], the pIC50 is 7.40.

Take `CC(C)S(=O)(=O)C(C(=O)NCC(=O)NC1CC1)c1nc2cc(-c3cn(C)c(=O)c4ccccc34)c(F)cc2s1` (stereo not shown) [Example 276, N-[(cyclopropyl-carbamoyl)methyl]-2-[6-fluoro-5-(2-methyl-1-oxo-1,2-dihydro-isoquinolin-4-yl)-1,3-benzothiazol-2-yl]-2-(propane-2-sulfonyl) acetamide]: the pIC50 was 8.10.

`CC(C)S(=O)(=O)C(C(=O)NCC(=O)NC1CC1)c1nc2cc(-c3ccc(C(=O)N4CCC4)cc3)c(F)cc2s1` (stereo not shown) [Example 277, 2-{5-[4-(azetidine-1-carbonyl)phenyl]-6-fluoro-1,3-benzothiazol-2-yl}-N-[(cyclopropyl-carbamoyl)methyl]-2-(propane-2-sulfonyl)acetamide] had a pIC50 of 7.89.

Take `COC(=O)Nc1cccc(-c2ccc3nc(C(C(=O)NCC(=O)NC4CC4)S(=O)(=O)Cc4cccc(C#N)c4)sc3c2)c1` (stereo not shown) [Example 278, methyl N-(3-{2-[(3-cyanophenyl)methanesulfonyl ({[(cyclopropyl-carbamoyl)methyl]carbamoyl})methyl]-1,3-benzothiazol-6-yl}phenyl)carbamate]: the pIC50 is 8.05.

`CC(=O)Nc1cccc(-c2ccc3nc(C(C(=O)NCC(=O)NC4CC4)S(=O)(=O)Cc4cccc(C#N)c4)sc3c2)c1` (stereo not shown) [Example 279] showed a pIC50 of 7.05.

Compound `COC(=O)Nc1cccc(-c2cc(F)c3nc(C(C(=O)NCC(=O)NC4CC4)S(=O)(=O)C(C)C)sc3c2)c1` (stereo not shown) [Example 280, methyl N-{3-[2-({[(cyclopropyl-carbamoyl)methyl]carbamoyl} (propane-2-sulfonyl)methyl)-4-fluoro-1,3-benzothiazol-6-yl]phenyl}carbamate] showed a pIC50 of 8.22.

As for `CC(C)S(=O)(=O)C(C(=O)NCC(=O)NC1CC1)c1nc2c(F)cc(-c3ccc4cnn(C)c4c3)cc2s1` (stereo not shown) [Example 281, N-[(cyclopropyl-carbamoyl)methyl]-2-[4-fluoro-6-(1-methyl-1H-indazol-6-yl)-1,3-benzothiazol-2-yl]-2-(propane-2-sulfonyl)acetamide], the pIC50 is 8.05.

In turn, `CC(C)S(=O)(=O)C(C(=O)NCC(=O)NC1CC1)c1nc2c(F)cc(-c3cnc(-c4ccccc4)nc3)cc2s1` (stereo not shown) [Example 282, N-[(cyclopropyl-carbamoyl)methyl]-2-[4-fluoro-6-(2-phenylpyrimidin-5-yl)-1,3-benzothiazol-2-yl]-2-(propane-2-sulfonyl)acetamide] gave a pIC50 of 7.66.

`CC(C)S(=O)(=O)C(C(=O)NCC(=O)NC1CC1)c1nc2c(F)cc(-c3ccc(N4CCCC4=O)cc3)cc2s1` (stereo not shown) [Example 283, N-[(cyclopropyl-carbamoyl)methyl]-2-{4-fluoro-6-[4-(2-oxopyrrolidin-1-yl)phenyl]-1,3-benzothiazol-2-yl}-2-(propane-2-sulfonyl)acetamide] showed a pIC50 of 8.00.

The compound `CC(C)S(=O)(=O)C(C(=O)NCC(=O)NC1CC1)c1nc2c(F)cc(-c3ccc(C(=O)N4CCC4)cc3)cc2s1` (stereo not shown) [Example 284, 2-{6-[4-(azetidine-1-carbonyl)phenyl]-4-fluoro-1,3-benzothiazol-2-yl}-N-[(cyclopropyl-carbamoyl)methyl]-2-(propane-2-sulfonyl)acetamide] had a pIC50 of 7.92.

The compound `Cc1cc2nc(C(C(=O)NCC(=O)NC3CC3)S(=O)(=O)C(C)C)sc2cc1-c1ccc(NC(=O)OCc2ccccc2)cc1` (stereo not shown) [Example 285, benzyl N-{4-[2-({[(cyclopropyl-carbamoyl)methyl]carbamoyl} (propane-2-sulfonyl)methyl)-5-methyl-1,3-benzothiazol-6-yl]phenyl}carbamate] gave a pIC50 of 7.92.

`COCCS(=O)(=O)C(C(=O)NCC(=O)NC1CC1)c1nc2cc(F)c(-c3ccc(-c4noc(=O)[nH]4)cc3)cc2s1` (stereo not shown) [Example 286, N-[(cyclopropyl-carbamoyl)methyl]-2-{5-fluoro-6-[4-(5-oxo-4,5-dihydro-1,2,4-oxadiazol-3-yl)phenyl]-1,3-benzothiazol-2-yl}-2-(2-methoxyethane-sulfonyl)acetamide] had a pIC50 of 8.10.

Compound `COCCS(=O)(=O)C(C(=O)NCC(=O)NC1CC1)c1nc2ccc(-c3ccncc3Cl)cc2s1` (stereo not shown) [Example 288, 2-[6-(3-chloropyridin-4-yl)-1,3-benzothiazol-2-yl]-N-[(cyclopropyl-carbamoyl)methyl]-2-(2-methoxyethane-sulfonyl)acetamide] had a pIC50 of 7.82.

With `COCCS(=O)(=O)C(C(=O)NCC(=O)NC1CC1)c1nc2ccc(-c3ccncc3)cc2s1` (stereo not shown) [Example 289, N-[(cyclopropyl-carbamoyl)methyl]-2-(2-methoxyethane-sulfonyl)-2-[6-(pyridin-4-yl)-1,3-benzothiazol-2-yl] acetamide], the pIC50 is 7.64.

Compound `COCCS(=O)(=O)C(C(=O)NCC(=O)NC1CC1)c1nc2ccc(-c3ccnc(C(F)(F)F)c3)cc2s1` (stereo not shown) [Example 290, N-[(cyclopropyl-carbamoyl)methyl]-2-(2-methoxyethane-sulfonyl)-2-{6-[2-(trifluoromethyl)pyridin-4-yl]-1,3-benzothiazol-2-yl} acetamide] showed a pIC50 of 7.64.

Compound `COCCS(=O)(=O)C(C(=O)NCC(=O)NC1CC1)c1nc2ccc(-c3ccc(OC(C)C)nc3)cc2s1` (stereo not shown) [Example 291, N-[(cyclopropyl-carbamoyl)methyl]-2-(2-methoxyethane-sulfonyl)-2-{6-[6-(propan-2-yloxy)pyridin-3-yl]-1,3-benzothiazol-2-yl} acetamide] gave a pIC50 of 7.54.

Compound `COCCS(=O)(=O)C(C(=O)NCC(=O)NC1CC1)c1nc2ccc(-c3cnnc(C)c3)cc2s1` (stereo not shown) [Example 292, N-[(cyclopropyl-carbamoyl)methyl]-2-(2-methoxyethane-sulfonyl)-2-[6-(6-methylpyridazin-4-yl)-1,3-benzothiazol-2-yl]acetamide] showed a pIC50 of 7.51.

Regarding `CCOc1ncccc1-c1ccc2nc(C(C(=O)NCC(=O)NC3CC3)S(=O)(=O)CCOC)sc2c1` (stereo not shown) [Example 293, N-[(cyclopropyl-carbamoyl)methyl]-2-[6-(2-ethoxypyridin-3-yl)-1,3-benzothiazol-2-yl]-2-(2-methoxyethane-sulfonyl)acetamide], the pIC50 was 7.48.

For the compound `COCCS(=O)(=O)C(C(=O)NCC(=O)NC1CC1)c1nc2ccc(-c3cnc(F)c(C)c3)cc2s1` (stereo not shown) [Example 294, N-[(cyclopropyl-carbamoyl)methyl]-2-[6-(6-fluoro-5-methylpyridin-3-yl)-1,3-benzothiazol-2-yl]-2-(2-methoxyethane-sulfonyl)acetamide], the pIC50 was 7.44.

`COCCS(=O)(=O)C(C(=O)NCC(=O)NC1CC1)c1nc2ccc(-c3ccc(C(F)(F)F)nc3)cc2s1` (stereo not shown) [Example 296, N-[(cyclopropyl-carbamoyl)methyl]-2-(2-methoxyethane-sulfonyl)-2-{6-[6-(trifluoromethyl)pyridin-3-yl]-1,3-benzothiazol-2-yl}acetamide] showed a negative logarithm of the IC50 (pIC50) of 7.16.

The same test, now with this note: EL from conditioned media of HT-1080 cells; 30 min preincubation at 37° C.
For `CC(C)OCCNC(=O)CNC(=O)C(c1nc2ccc(-c3ccc4c(c3)CNC4=O)cc2s1)S(C)(=O)=O` (stereo not shown) [Example 287, N-(2-((2-Isopropoxyethyl)amino)-2-oxoethyl)-2-(methylsulfonyl)-2-(6-(1-oxoisoindolin-5-yl)benzo[d]thiazol-2-yl)acetamide], the negative-log IC50 (pIC50) is 8.54.

(Values after US10173991B2, “Sulfone amide linked benzothiazole inhibitors of endothelial lipase” (BRISTOL-MYERS SQUIBB COMPANY, priority 2014, dated 2019).)
